Data on two compounds can be found in patent US20210330756A1, “Acetylation of Miro1” (University of South Carolina, priority 2020, published 2021).

Assay [1] deals with axonal mitochondrial membrane potential (ΨM). Briefly: Mitochondrial membrane potential (JC-1 red/green ratio) in axon shafts of DRG neurons. Type of assay: cell-based, rat. The source says:
Considering the above changes in mitochondrial transport, we asked if MAG and CSPG might affect mitochondrial function in axons. Functional mitochondria are needed to generate ATP, and the mitochondrion's membrane potential (ΨM) is thought to reflect its capacity for generating ATP. Increased anterograde transport of mitochondria in axons correlated with higher ΨM, as measured by the ratiometric 5,5′,6,6′-tetrachloro-1,1′,3,3′-tetraethylbenzimidazolcarbocyanine iodide (JC-1) dye (Miller and Sheetz, 2004), and reduced axonal ΨM in Drosophila melanogaster larvae was recently correlated with overall decrease in mitochondrial transport (Liao et al., 2017).
JC-1 (Life Technologies) was used for wm measurements. For this, DRG cultures were equilibrated in culture medium with […] JC-1 for 20 min at 37° C. Medium was replaced, and the cells were maintained at 37° C. in the high-content imaging system on which JC-1 fluorescent signals in green and red wavelengths were acquired. […]
Vesicle trafficking was quantified using differential ImageJ Difference Tracker Plug-in (Andrews et al., 2010). 50-80-μm long unbranched axon segments at approximately the mid-region between growth cone and cell body were analyzed. […] The distance between the growth tip at end of the post-CALI sequence and the pre-CALI baseline was measured using LAS-X software. Movement of ≥0.5 μm toward the axon shaft was counted as retracted. Fluorescence emission of the Mito-KR post-CALI was analyzed using ImageJ. For normalizing intensities across FRAP image sets, fluorescence intensity at each time point was scaled using the LAS-X FRAP module so that the residual fluorescence signal at t=0 min (post-bleach) was set at 0 and the prebleach intensity was set at 100% for each bleached ROI. For axon shaft FRAP analyses, each 50-μm bleached ROI was divided into […], and the fluorescence intensity recovery was measured as described above. […] A minimum of 75 unmyelinated axons was analyzed for each nerve. All unmyelinated axons from each analyzed image were included for quantitative studies. […]

The next assay has as its system Miro1-AcK105. Briefly: Miro1-AcK105 levels in DRG cultures by immunoblotting and immunofluorescence. It is filed as cell-based, rat. The source says:
The three reported acetylation sites for Miro1 in human cell lines K92, K512, and K618 (Choudhary et al., 2009; Lundby et al., 2012) correspond to K105, K525, and K629 in rat Miro1 (FIG. 6 at D). We generated Lys-to-Ala mutants for K105, K525, and K629 to determine if these Miro1 residues are acetylated in neurons (Myc-Miro1K105A , Myc-Miro1K525A , and […]; FIG. 6 at D). […] To more definitively assess acetylation of K105, we used acetylated Miro1 peptides to generate an anti-Miro1-AcK105 antibody.
For immunoblotting, protein lysates or immunoprecipitates were denatured by boiling in Laemmli sample buffer, fractionated by SDS-PAGE, and transferred to nitrocellulose membranes. Blots were blocked for 1 h at room temperature with 5% nonfat dry milk in TBS with 0.1% Tween 20 (TBST). Primary antibodies diluted in 5% BSA in TBST were added to the membranes and incubated overnight at 4° C. with rocking. Primary antibodies consisted of rabbit anti-Myc (1:2,000; Cell Signaling; 71D10), rabbit anti-RHOT1 antibody (1:1,000; Aviva Systems Biology; ARP44817 P050), rabbit anti-HDAC6 antibody (1:2,000; Cell Signaling; 7558), rabbit anti-ERK1 (1:5,000; Abcam; ab32537), and affinity-purified custom rabbit anti-Miro1-AcK105 (1:2,500; Twiss laboratory, see above) antibodies. For the anti-Miro1-AcK105 antibody, preimmune and test-bleed sera were used at 1:1,000 dilutions to initially evaluate for specificity. After washing in TBST, blots were incubated with HRP-conjugated anti-rabbit IgG antibodies (1:5,000; Jackson Immunoresearch) diluted in blocking buffer for 1 h at room temperature. Signals were detected using ECL Prime (GE Healthcare) after extensive washing.
Standard immunofluorescence methods were used as previously described (Merianda et al., 2009) at room temperature unless specified otherwise. Briefly, coverslips were rinsed in PBS, fixed in buffered 3.7% PFA for 15-20 min, and washed twice in PBS. Cultures were permeabilized with PBS plus 0.3% Triton X-100 (PBST; Sigma-Aldrich) for 5 min. Coverslips were blocked in 2% BSA and 2% FBS (Gemini) for 1 h. […]
Background: In western blotting, separated proteins are transferred to a membrane and probed.

Assay [2] deals with rat embryonic cortical neurons. To be noted: 10 μM; cited from earlier work.

Regarding `CN1CCc2c(c3ccccc3n2Cc2ccc(C(=O)NO)cc2)C1` [TubA, tubastatin], in assay [1] (10 μM TubA), the “effect on MAG-Fc- or CSPG-dependent declines in ΨM” value is listed as “prevented by inhibition of HDAC6 with TubA”. In addition, the “effect on Rho activator- and thapsigargin-dependent decrease in ΨM” value in assay [1] (+10 μM TubA) is “also prevented by HDAC6 inhibition”. In addition, the anti-Miro1-AcK105 immunoblot signal result in the assay with Miro1-AcK105 (DRG lysates ± 10 μM TubA) is on record as “clear increase in signal”. In assay [2], the histone acetylation entry is reported as “no effect on histone acetylation” and the “levels of acetyl (Ac) α-tubulin” value was “increases levels of acetyl (Ac) α-tubulin”.

On to `C/C=C(/C)C(=O)O[C@H]1C(C)=C2[C@H]([C@@H]1OC(=O)CCCCCCC)[C@@](C)(OC(C)=O)C[C@H](OC(=O)CCC)[C@@]1(O)[C@H]2OC(=O)[C@@]1(C)O` [thapsigargin], for which the “ΨM in the axons” value in assay [1] (1 μg/ml Rho activator or 1 μM thapsigargin) is given as “decreased ΨM”. For the same compound, the “Miro1-AcK105 overall by immunoblotting” value in the assay with Miro1-AcK105 (10 μg/ml aggrecan or 1 μM thapsigargin, 4 h) was “decreased Miro1-AcK105”. The “Miro1-AcK105 in axons by immunofluorescence” value with Miro1-AcK105 (aggrecan- or thapsigargin-treated cultures) is given as “decreased Miro1-AcK105”.
